Measured values published in paper PMC6271965, “Inhibition of GlcNAc-Processing Glycosidases by C-6-Azido-NAG-Thiazoline and Its Derivatives” (Molecules, 2014).
Read-outs that look alike come from different tables or passages of the source.

What was measured:
Assay in all cases: pNP-β-GlcNAc hydrolysis, kinetic assay at […] nm
Assay type in all cases: biochemical
[1] = target: T1, O-GlcNAcase from Bacteroides thetaiotaomicron (Bacteroides thetaiotaomicron, UniProt Q89ZI2)
T1 construct: gene BT_4395; gene from D. Vocadlo; GH84
T1 sequence (Q89ZI2 22-737): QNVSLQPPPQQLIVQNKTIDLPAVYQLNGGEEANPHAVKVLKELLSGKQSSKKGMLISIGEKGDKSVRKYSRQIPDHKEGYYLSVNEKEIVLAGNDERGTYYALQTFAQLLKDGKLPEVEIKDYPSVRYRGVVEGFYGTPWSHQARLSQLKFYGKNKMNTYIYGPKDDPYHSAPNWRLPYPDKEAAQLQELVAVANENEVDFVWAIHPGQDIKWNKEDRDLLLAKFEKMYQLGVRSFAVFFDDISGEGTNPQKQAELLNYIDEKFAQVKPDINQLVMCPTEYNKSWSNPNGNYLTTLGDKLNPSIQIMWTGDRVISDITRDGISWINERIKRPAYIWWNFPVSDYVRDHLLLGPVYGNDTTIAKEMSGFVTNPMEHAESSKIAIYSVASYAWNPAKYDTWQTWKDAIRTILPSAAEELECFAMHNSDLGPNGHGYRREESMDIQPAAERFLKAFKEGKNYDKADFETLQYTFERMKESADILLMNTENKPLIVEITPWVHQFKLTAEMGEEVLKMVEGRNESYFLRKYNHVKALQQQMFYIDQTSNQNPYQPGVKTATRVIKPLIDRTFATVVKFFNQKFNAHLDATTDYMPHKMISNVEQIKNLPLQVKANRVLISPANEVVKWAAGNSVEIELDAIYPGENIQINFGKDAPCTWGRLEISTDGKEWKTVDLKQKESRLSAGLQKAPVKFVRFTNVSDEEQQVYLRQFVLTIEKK

[2] = target: T2, β-N-acetylhexosaminidase from Streptomyces plicatus (Streptomyces plicatus, UniProt O85361); details: read-out: KI [μM] / NAG-thiazoline (1)
T2 construct: gene hex; synthetic gene, His6-tagged fusion in pET-15b (NdeI/BamHI), E. coli BL21(DE3) pLysS, Ni-NTA purified; GH20
T2 sequence (O85361 1-506): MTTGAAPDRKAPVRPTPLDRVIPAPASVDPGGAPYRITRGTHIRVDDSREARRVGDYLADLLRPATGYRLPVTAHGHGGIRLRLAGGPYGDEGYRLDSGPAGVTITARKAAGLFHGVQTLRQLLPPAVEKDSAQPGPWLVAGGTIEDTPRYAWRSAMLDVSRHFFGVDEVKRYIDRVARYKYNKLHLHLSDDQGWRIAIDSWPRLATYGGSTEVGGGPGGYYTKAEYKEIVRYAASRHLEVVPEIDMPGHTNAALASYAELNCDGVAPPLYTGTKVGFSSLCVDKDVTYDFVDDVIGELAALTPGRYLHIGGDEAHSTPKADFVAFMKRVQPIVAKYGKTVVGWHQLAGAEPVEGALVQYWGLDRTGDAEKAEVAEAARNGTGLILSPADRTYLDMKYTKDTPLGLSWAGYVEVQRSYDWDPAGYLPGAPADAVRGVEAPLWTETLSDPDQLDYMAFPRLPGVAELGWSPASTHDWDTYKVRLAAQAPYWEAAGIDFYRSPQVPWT

[3] = target: T3, β-N-acetylhexosaminidase from Talaromyces flavus (Talaromyces flavus, UniProt G5DAA0)
T3 construct: recombinant, secreted from Pichia pastoris, purified by cation exchange chromatography; GH20

human O-GlcNAcase = target: T4, human O-GlcNAcase (Homo sapiens, UniProt O60502); details: read-out: KI [μM] / C-6-azido-NAG-thiazoline (2)
T4 construct: gene OGA; gene from D. Vocadlo; GH84
T4 sequence (O60502 1-916): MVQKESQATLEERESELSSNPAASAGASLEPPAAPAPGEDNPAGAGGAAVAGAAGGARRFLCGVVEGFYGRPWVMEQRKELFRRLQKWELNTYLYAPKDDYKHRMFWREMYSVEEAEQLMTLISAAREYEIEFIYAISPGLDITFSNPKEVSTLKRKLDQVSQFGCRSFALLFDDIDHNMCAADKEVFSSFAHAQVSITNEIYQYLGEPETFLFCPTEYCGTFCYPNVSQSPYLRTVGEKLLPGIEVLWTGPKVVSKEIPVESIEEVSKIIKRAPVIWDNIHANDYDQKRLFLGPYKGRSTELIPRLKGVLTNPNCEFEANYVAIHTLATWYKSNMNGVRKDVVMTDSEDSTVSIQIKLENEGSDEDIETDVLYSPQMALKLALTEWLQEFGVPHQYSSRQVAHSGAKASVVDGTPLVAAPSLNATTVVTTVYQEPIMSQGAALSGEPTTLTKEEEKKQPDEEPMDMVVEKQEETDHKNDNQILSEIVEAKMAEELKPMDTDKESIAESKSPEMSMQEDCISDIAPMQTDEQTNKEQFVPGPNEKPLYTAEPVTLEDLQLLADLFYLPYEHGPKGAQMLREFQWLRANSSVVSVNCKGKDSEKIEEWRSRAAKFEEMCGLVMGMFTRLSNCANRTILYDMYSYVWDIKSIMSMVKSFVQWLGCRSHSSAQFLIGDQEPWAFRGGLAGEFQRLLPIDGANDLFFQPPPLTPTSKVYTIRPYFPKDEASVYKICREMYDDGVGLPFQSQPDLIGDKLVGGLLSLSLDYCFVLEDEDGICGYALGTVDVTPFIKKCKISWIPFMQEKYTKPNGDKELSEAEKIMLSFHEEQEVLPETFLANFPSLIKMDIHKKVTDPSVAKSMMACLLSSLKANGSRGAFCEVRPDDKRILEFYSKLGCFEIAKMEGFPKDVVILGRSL

[4] = read-out: KI [μM] / NAG-thiazoline (1)
[5] = read-out: KI [μM] / C-6-azido-NAG-thiazoline (2)

T3 sequence (G5DAA0 18-628): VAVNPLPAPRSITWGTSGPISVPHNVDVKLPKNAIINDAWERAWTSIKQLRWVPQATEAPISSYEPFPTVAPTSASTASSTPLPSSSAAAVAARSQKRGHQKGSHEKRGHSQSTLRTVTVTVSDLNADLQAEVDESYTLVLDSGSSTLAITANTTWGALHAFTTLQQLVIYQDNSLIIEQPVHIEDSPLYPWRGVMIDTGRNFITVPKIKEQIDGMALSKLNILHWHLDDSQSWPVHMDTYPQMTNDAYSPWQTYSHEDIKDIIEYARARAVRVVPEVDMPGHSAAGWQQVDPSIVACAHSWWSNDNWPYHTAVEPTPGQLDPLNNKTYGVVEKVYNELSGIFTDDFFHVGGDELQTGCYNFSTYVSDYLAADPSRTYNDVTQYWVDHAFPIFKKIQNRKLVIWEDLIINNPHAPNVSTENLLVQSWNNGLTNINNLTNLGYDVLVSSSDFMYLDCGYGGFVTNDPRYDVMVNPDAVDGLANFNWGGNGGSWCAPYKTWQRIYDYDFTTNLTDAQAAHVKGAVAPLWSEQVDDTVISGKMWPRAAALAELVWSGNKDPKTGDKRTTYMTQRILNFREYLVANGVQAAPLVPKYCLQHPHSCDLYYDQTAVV

SMILES | Ki [1, 4] [µM] | Ki [2] [µM] | Ki [3, 4] [µM] | Ki [1, 5] [µM] | Ki (human O-GlcNAcase) [µM] | Ki [3, 5] [µM]
CC1=N[C@@H]2[C@@H](O)[C@H](O)[C@@H](CO)O[C@@H]2S1 [compound 1, 1,2-Dideoxy-2'-methyl-α-D-glucopyrano-[2,1-d]-∆2'-thiazoline] | 0.029 ± 0.003 | 24 ± 5 | 42.7 ± 1.9 |  |  | 
CC1=N[C@@H]2[C@@H](O)[C@H](O)[C@@H](CN=[N+]=[N-])O[C@@H]2S1 [compound 2, 6-Azido-1,2-dideoxy-2'-methyl-α-D-glucopyrano-[2,1-d]-∆2'-thiazoline] |  |  |  | 3.1 ± 0.3 | 19.3 ± 11.9 | 212 ± 16.3
